Where a name gives a salt, the structure may show the parent alone.
Experiments:
[1] = tested on: ALS(SOD1^H46R) mice; experiment: Histopathology, immunohistochemistry and Western blot of spinal cord, ventral root and muscle of treated ALS(SOD1^H46R) mice; type: in vivo, mouse
Protocol: At 21–22 weeks of age (late-symptomatic stage), mice were anesthetized with 2% isoflurane by inhalation. Anesthetized mice were transcardially perfused with physiological saline containing 10% heparin, followed by 4% paraformaldehyde (PFA) in 0.1 M phosphate buffer (PB) (pH 7.2). Spinal cord was removed, and lumbar segment was dissected.
For the preparation of paraffin-embedding tissue, lumbar segment was post-fixed with the same fixative for 48 h at 4°C and embedded in paraffin. Serial transverse sections (6 µm thickness) of lumbar segment (L4–L5) were sliced and stained with hematoxylin and eosin (H&E) for histopathological evaluation.
For the preparation of frozen-embedding tissue, lumbar segment was post-fixed with 4% PFA in 0.1 M PB (pH 7.2) for 24 h at 4°C, and then processed in 30% sucrose in 0.1 M PB (pH 7.2) containing 0.1% NaN3 for 96 h at 4°C (for cryoprotection) followed by frozen-embedding. Ten µm frozen sections were cut on a cryostat and used for fluorescent immunohistochemistry.
Immunohistochemical analyses with anti-ChAT, anti-Iba-1, anti-GFAP, anti-MAP2, anti-IL-1β and anti-8-OHdG antibodies were performed. For immunostaining with anti-ChAT antibody, the deparaffinized sections from late-symptomatic mice were pre-treated by autoclaving at 121°C for 5 min in HISTOFINE antigen retrieval solution (pH 9.0) (Nichirei). For immunostaining with anti-Iba-1 antibody, the deparaffinized sections from late-symptomatic mice were pre-treated by autoclaving at 121°C for 10 min in 10 mM citrate buffer (pH 6.0). For immunostaining with anti-GFAP antibody, the deparaffinized sections were used without any pretreatment. The sections were incubated with 0.3% H2O2 in methanol for 30 min and then with phosphate-buffered saline (PBS) (pH 7.2) containing 0.3% Triton X-100 for 30 min. After the treatment with PBS containing 5% normal goat serum (NGS) (Vector Laboratories)/0.05% Triton X-100 or 5% normal rabbit serum (NRS) (Vector Laboratories)/0.05% Triton X-100 for 1 h at room temperature, the sections were incubated with either anti-GFAP or anti-Iba-1 antibody in PBS containing 1.5% NGS/0.05% Triton X-100 or with anti-ChAT antibody in PBS containing 1.5% NRS/0.05% Triton X-100 overnight at 4°C. The sections were then incubated with HISTOFINE simple stain mouse MAX-PO (R) (Nichirei) or with HISTOFINE simple stain mouse MAX-PO (G) (Nichirei) for 1 hr at room temperature. The sections were visualized using 0.05% 3,3-diaminobenzidine tetrahydrochloride (DAB) (Wako) and 0.015% H2O2 in 50 mM Tris-HCl (pH 7.5) buffer, and the DAB reaction products were observed under a light microscope (BIOREVO BZ-9000, KEYENCE).
For double-immunostaining using frozen section, sections from late-symptomatic mice were washed with PBS, and treated with PBS containing 3% normal horse serum (NHS) (Vector Laboratories)/0.3% Triton X-100 for 1 h at room temperature. The sections were incubated with anti-IL-1β antibody in PBS containing 0.01% Triton X-100 for 48 h at 4°C, and then were incubated with CF^TM488A donkey anti-goat IgG (H+L) (1∶400, Biotium) in PBS containing 0.01% Triton X-100 for 1 h at room temperature. Next, the sections were incubated with anti-GFAP, anti-Iba-1 or anti-MAP2 antibody in PBS containing 0.01% Triton X-100 overnight at 4°C, and then were incubated with CF^TM555 goat anti-rabbit IgG (H+L) (1∶400, Biotium) in PBS containing 0.01% Triton X-100 for 1 h at room temperature. Fluorescent signals were observed under a light microscope (BIOREVO BZ-9000, KEYENCE).
For double-immunostaining of deparaffinized tissue, sections from late-symptomatic mice were pre-treated by autoclaving at 121°C for 10 min in 10 mM citrate buffer (pH 6.0). After the treatment with PBS containing 5%NGS/0.05% Triton X-100, the sections were incubated with anti-8-OHdG and anti-GFAP, anti-Iba-1 or anti-MAP2 antibodies in PBS containing 1.5% NGS/0.05% Triton X-100 overnight at 4°C. […]

[2] = Complexing with protein in human serum; type: in vitro ADME; details: human sera, unpublished data

Cc1cc(C)c(N(C)CC(=O)Nc2nc(-c3ccccn3)c[nH]2)c(C)c1 [WN1316, 2-[mesityl(methyl)amino]-N-[4-(pyridin-2-yl)-1H-imidazol-2-yl] acetamide trihydrochloride]
DNA oxidation (8-OHdG) in lumbar spinal cord ([1]; 10 µg/kg, 21–22 weeks of age): remarkable reduction | IL-1β immunoreactivity in astrocytes ([1]; 10 µg/kg, 21–22 weeks of age): diminished dramatically | iNOS generation in lumbar spinal cord (Western blot) ([1]; 10 µg/kg, 21–22 weeks of age): decreased | large myelinated axons in the L5 ventral root ([1]; 10 µg/kg, 21–22 weeks of age): preservation of large myelinated axons | GFAP and Iba-1 immunoreactivity in lumbar spinal cord anterior horn ([1]; 10 µg/kg, 21–22 weeks of age, vs vehicle): significant reduction | protein levels of mutant SOD1 in NP-40-soluble and NP-40-insoluble/SDS-soluble fractions ([1]; 10 µg/kg, vs vehicle, 21–22 weeks of age): no significant differences | loss of ChAT-positive motor neurons compared with non-Tg littermates ([1]; 10 µg/kg/day, lumbar L4–L5, 21–22 weeks of age (vehicle 35.5%)): 15.2% | skeletal muscle integrity (quadriceps femoris) ([1]; 21–22 weeks of age): preserved the skeletal muscle integrity | protein complexing in serum [2]: complexes with protein

Source: paper PMC3909264, “A Novel Acylaminoimidazole Derivative, WN1316, Alleviates Disease Progression via Suppression of Glial Inflammation in ALS Mouse Model” (PLoS ONE, 2014)
